Data on 31 compounds can be found in ChEMBL document CHEMBL1124264, “Predictive structure-activity relationships in a series of pyranoquinoline derivatives. A new primate model for the identification of antiallergic activity” (J Med Chem, 1988).

The test system of one series is Monkey. Nature of the series: In vitro inhibition of anti-IgE induced histamine release from bronchoalveolar mast cells of monkey infected with Ascaris suum. The class given is functional, Cercopithecidae, Lung.
Series [1] can be described thus: Biological activity expressed as the Log potency ratio (PR) of the compound relative to a standard compound 63. The note with it: octanol/water. Type of series: ADME.
A short description of series [2]: log PR value (eq 2). The class given is ADME. Particulars: octanol/water.
Series [3] can be described thus: Dissociation constant (eq 2). The class given is physicochemical. The note with it: read-out: pK3.
A short description of series [4]: Dissociation constant using spectrophotometric method. Type of series: physicochemical.
Series [5] in a line: log PR value using spectrophotometric method. Type of series: ADME. The note with it: octanol/water.
Series [6] in a line: Dissociation constant (pKa1) using partition method. The class given is physicochemical. Particulars: read-out: pKa1.
Series [7] can be described thus: Dissociation constant (pKa2) using partition method. The note with it: read-out: pKa2. The class given is physicochemical.

Molecules are shown by their SMILES.

For `CCCc1c2nc(C(=O)[O-])cc(Cl)c2cc2c(=O)cc(C(=O)[O-])oc12.[Na+].[Na+]`, the Potency ratio with Monkey was determined as 1.096. Further, the “Log PR” value in series [1] stood at 0.04.
The like results for `CCCc1c2nc(C(=O)[O-])cc(C#N)c2cc2c(=O)cc(C(=O)[O-])oc12.[Na+].[Na+]` were, in that order, 1.161 and 0.07.
The like results for `CCCc1c2nc(C(=O)[O-])cc(C3OCCCO3)c2cc2c(=O)cc(C(=O)[O-])oc12.[Na+].[Na+]` were, in that order, 0.179 and -0.75.
For `CCCc1c2nc(C(=O)[O-])cc(O)c2cc2c(=O)cc(C(=O)[O-])oc12.[Na+].[Na+]`, the Potency ratio in the series on Monkey came out at 2.366. Also, in series [1], the “Log PR” value was found to be 0.37.
The like results for `CCCc1c2nc(C(=O)[O-])cc(Oc3ccccc3)c2cc2c(=O)cc(C(=O)[O-])oc12.[Na+].[Na+]` were, in that order, 3.244 and 0.51.
The like results for `CCCc1c2nc(C(=O)[O-])cc(SCC)c2cc2c(=O)cc(C(=O)[O-])oc12.[Na+].[Na+]` were, in that order, 2.249 and 0.35.
As for `CCCc1c2nc(C(=O)[O-])cc(S(=O)Oc3ccccc3)c2cc2c(=O)cc(C(=O)[O-])oc12.[Na+].[Na+]` (stereo not drawn), in the series on Monkey, the Potency ratio was 0.536. The “Log PR” value in series [1] was -0.27.
As for `CCCc1c2nc(C(=O)[O-])cc(N)c2cc2c(=O)cc(C(=O)[O-])oc12.[Na+].[Na+]`, the “Log PR” value in series [2] is -1.25; in series [1] it was 0.12. In addition, the pKa in series [3] is 8.75. For the same compound, in the series on Monkey, the Potency ratio was determined as 0.057.
For the compound `CCCc1c2nc(C(=O)[O-])cc(Sc3ccccc3)c2cc2c(=O)cc(C(=O)[O-])oc12.[Na+].[Na+]`, the Potency ratio in the series on Monkey is listed as 7.54. In series [1], the “Log PR” value was found to be 0.88.
Consider `CCCc1c2nc(C(=O)[O-])cc(NC(C)=O)c2cc2c(=O)cc(C(=O)[O-])oc12.[Na+].[Na+]`, for which the Potency ratio in the series with Monkey is recorded as 0.065. In addition, the “Log PR” value in series [1] was -1.19.
Taken in the same sequence, the figures for `CCCc1c2nc(C(=O)[O-])cc(C(F)(F)F)c2cc2c(=O)cc(C(=O)[O-])oc12.[Na+].[Na+]` were 2.53 and 0.4.
`CCCc1c2nc(C(=O)[O-])cc(-n3cccc3)c2cc2c(=O)cc(C(=O)[O-])oc12.[Na+].[Na+]`: the Potency ratio in the series with Monkey turned out to be 2.686. Besides, the “Log PR” value in series [1] came out at 0.43.
Taken in the same sequence, the figures for `CCCc1c2nc(C(=O)[O-])cc(N(C)C(C)=O)c2cc2c(=O)cc(C(=O)[O-])oc12.[Na+].[Na+]` were 0.009 and -2.05.
Taken in the same sequence, the figures for `CCCc1c2nc(C(=O)[O-])cc(C=O)c2cc2c(=O)cc(C(=O)[O-])oc12.[Na+].[Na+]` were 0.237 and -0.63.
Turning to `CCCc1c2nc(C(=O)[O-])cc(Br)c2cc2c(=O)cc(C(=O)[O-])oc12.[Na+].[Na+]`, the Potency ratio in the series on Monkey came to 1.04. Moreover, the “Log PR” value in series [1] is given as 0.02.
Consider `CCCc1c2nc(C(=O)[O-])ccc2cc2c(=O)cc(C(=O)[O-])oc12.[Na+].[Na+]`, for which the Potency ratio in the series with Monkey came to 0.1. In addition, in series [1], the “Log PR” value is -1.
`CCCc1c2nc(C(=O)[O-])cc(Nc3ccccc3)c2cc2c(=O)cc(C(=O)[O-])oc12.[Na+].[Na+]` came in with a pKa in series [4] of 7.78. Besides, the “Log PR” value was 0.39 in series [5] and -0.15 in series [1]. Besides, the Potency ratio with Monkey turned out to be 0.706.
On to `CCCc1c2nc(C(=O)[O-])cc(NC(=O)Nc3ccccc3)c2cc2c(=O)cc(C(=O)[O-])oc12.[Na+].[Na+]`, for which, in the series with Monkey, the Potency ratio is 0.895. Further, the “Log PR” value in series [1] is -0.05.
Taken in the same sequence, the figures for `CCCc1c2nc(C(=O)[O-])cc(/C=C/c3ccccc3)c2cc2c(=O)cc(C(=O)[O-])oc12.[Na+].[Na+]` were 6.326 and 0.8.
Take `CCCc1c2nc(C(=O)[O-])cc(NC)c2cc2c(=O)cc(C(=O)[O-])oc12.[Na+].[Na+]`: the “Log PR” value in series [2] is -1.91; in series [1] it was -0.66. The pKa in series [3] was 8.63; in series [6] it was 0.5; in series [7], 1.62. Also, the Potency ratio in the series on Monkey is listed as 0.012.
`CCCc1c2nc(C(=O)[O-])cc(NCC)c2cc2c(=O)cc(C(=O)[O-])oc12.[Na+].[Na+]`: in series [4], the pKa worked out at 8.64. The “Log PR” value in series [5] is -0.89; in series [1], -2.15. The Potency ratio in the series with Monkey came out at 0.007.
As to `CCCc1c2nc(C(=O)[O-])cc(C(=O)[O-])c2cc2c(=O)cc(C(=O)[O-])oc12.[Na+].[Na+].[Na+]`, the Potency ratio with Monkey is on record as 0.053. In series [1], the “Log PR” value was -1.27.
The like results for `CCCc1c2nc(C(=O)[O-])cc(C(F)(F)C(F)(F)F)c2cc2c(=O)cc(C(=O)[O-])oc12.[Na+].[Na+]` were, in that order, 2.83 and 0.45.
As for `CCCc1c2nc(C(=O)[O-])cc(N3CCCC3)c2cc2c(=O)cc(C(=O)[O-])oc12.[Na+].[Na+]`, the “Log PR” value in series [2] is on record as -1.25; in series [1], 0.14. Also, the pKa in series [3] worked out at 8.75. For the same compound, the Potency ratio with Monkey came to 0.017.
Turning to `CCCc1c2nc(C(=O)[O-])cc(C(F)(F)C(F)(F)C(F)(F)F)c2cc2c(=O)cc(C(=O)[O-])oc12.[Na+].[Na+]`, the Potency ratio in the series with Monkey is on record as 3.725. Further, the “Log PR” value in series [1] is reported as 0.57.
Taken in the same sequence, the figures for `CCCc1c2nc(C(=O)[O-])cc(/C=N/NC(=O)c3ccccc3)c2cc2c(=O)cc(C(=O)[O-])oc12.[Na+].[Na+]` were 0.748 and -0.13.
In turn, `CCCCCNc1cc(C(=O)[O-])nc2c(CCC)c3oc(C(=O)[O-])cc(=O)c3cc12.[Na+].[Na+]` yielded a pKa in series [4] of 8.7. Further, the results for the “Log PR” value in series [5] and in series [1] were 0.05 and -1.27, respectively. Further, in the series on Monkey, the Potency ratio is recorded as 0.053.
On to `CCCc1c2nc(C(=O)[O-])cc(OCC)c2cc2c(=O)cc(C(=O)[O-])oc12.[Na+].[Na+]`, for which the Potency ratio with Monkey is given as 0.4. Also, the “Log PR” value in series [1] is reported as -0.4.
For `CCCc1c2nc(C(=O)[O-])cc(N(C)C)c2cc2c(=O)cc(C(=O)[O-])oc12.[Na+].[Na+]`, the entries for the “Log PR” value in series [2] and in series [1] were -1.2 and -0.29, respectively. In addition, the pKa in series [3] was found to be 8.26. Moreover, the Potency ratio in the series on Monkey is given as 0.063.
`CCCc1c2nc(C(=O)[O-])cc(C)c2cc2c(=O)cc(C(=O)[O-])oc12.[Na+].[Na+]`: in the series on Monkey, the Potency ratio turned out to be 0.379. Also, the “Log PR” value in series [1] is given as -0.42.
Turning to `CCCc1c2nc(C(=O)[O-])cc(C(F)F)c2cc2c(=O)cc(C(=O)[O-])oc12.[Na+].[Na+]`, in the series on Monkey, the Potency ratio was found to be 0.586. In addition, the “Log PR” value in series [1] is -0.23.
